The text below walks through data of article PMC5218480 (PLoS ONE, 2017).

For this assay, the system named is MV-4-11 cells. Kind of assay: Gene expression microarray analysis (Affymetrix PrimeView) and GSEA. The format is cell-based, human. Also on record: RFU PODN (11730768_x_at) / Fold change /veh PODN (11730768_x_at) / RFU LINC00158 (11744669_a_at) / Fold change /veh LINC00158 (11744669_a_at) / RFU DUSP10 (11751237_a_at) / Fold change /veh DUSP10 (11751237_a_at) / RFU ID3 (11757404_x_at) / Fold change /veh ID3 (11757404_x_at) / RFU PLEKHG5 (11737974_s_at) / Fold change /veh PLEKHG5 (11737974_s_at) / RFU LRRC4B (11730491_at) / Fold change /veh LRRC4B (11730491_at) / RFU GIMAP4 (11747438_a_at) / Fold change /veh GIMAP4 (11747438_a_at) / RFU KRT8 (11758183_x_at) / Fold change /veh KRT8 (11758183_x_at) / RFU CNN1 (11734310_a_at) / Fold change /veh CNN1 (11734310_a_at) / RFU VPS37D (11726825_at) / Fold change /veh VPS37D (11726825_at) / RFU C10orf10 (11716522_x_at) / Fold change /veh C10orf10 (11716522_x_at) / RFU KIR2DL2 /// KIR2DL4 /// KIR2DL5A /// KIR2DL5B /// KIR2DS1 /// KIR2DS2 /// KIR2DS3 /// KIR2DS4 /// KIR3DL3 /// KIR3DL3 /// KIR3DS1 (11738374_at) / Fold change /veh KIR2DL2 /// KIR2DL4 /// KIR2DL5A /// KIR2DL5B /// KIR2DS1 /// KIR2DS2 /// KIR2DS3 /// KIR2DS4 /// KIR3DL3 /// KIR3DL3 /// KIR3DS1 (11738374_at) / RFU C1QL1 (11718748_at) / Fold change /veh C1QL1 (11718748_at) / RFU TMPRSS4 (11747572_a_at) / Fold change /veh TMPRSS4 (11747572_a_at) / RFU HAMP (11756126_x_at) / Fold change /veh HAMP (11756126_x_at) / RFU RNFT2 (11725882_a_at) / Fold change /veh RNFT2 (11725882_a_at) / RFU NR4A2 (11747474_a_at) / Fold change /veh NR4A2 (11747474_a_at) / RFU ABCC12 (11746883_a_at) / Fold change /veh ABCC12 (11746883_a_at) / RFU TMEM136 (11760407_x_at) / Fold change /veh TMEM136 (11760407_x_at) / RFU CLDN22 /// WWC2 (11732394_at) / Fold change /veh CLDN22 /// WWC2 (11732394_at) / RFU HLA-DPB1 (11760878_x_at) / Fold change /veh HLA-DPB1 (11760878_x_at) / RFU SPINT1 (11716480_a_at) / Fold change /veh SPINT1 (11716480_a_at) / RFU GAP43 (11754022_s_at) / Fold change /veh GAP43 (11754022_s_at) / RFU A4GNT (11735810_at) / Fold change /veh A4GNT (11735810_at) / RFU PRB3 (11715151_x_at) / Fold change /veh PRB3 (11715151_x_at) / RFU TUBB4B (11761932_at) / Fold change /veh TUBB4B (11761932_at) / RFU CAPN14 (11732068_a_at) / Fold change /veh CAPN14 (11732068_a_at) / RFU TMCC2 (11721928_a_at) / Fold change /veh TMCC2 (11721928_a_at) / RFU IRGQ (11745062_a_at) / Fold change /veh IRGQ (11745062_a_at) / RFU FAM174B (11720279_a_at) / Fold change /veh FAM174B (11720279_a_at) / RFU TMPRSS4 (11748680_a_at) / Fold change /veh TMPRSS4 (11748680_a_at) / RFU FAM212B (11763350_a_at) / Fold change /veh FAM212B (11763350_a_at) / RFU PLEKHG5 (11743358_a_at) / Fold change /veh PLEKHG5 (11743358_a_at) / RFU ZSCAN30 (11745921_a_at) / Fold change /veh ZSCAN30 (11745921_a_at) / RFU CMKLR1 (11741424_a_at) / Fold change /veh CMKLR1 (11741424_a_at) / RFU LOC101060620 /// MAPK8IP1 (11723275_at) / Fold change /veh LOC101060620 /// MAPK8IP1 (11723275_at) / RFU SPTSSB (11747773_x_at) / Fold change /veh SPTSSB (11747773_x_at) / RFU PRSS12 (11739890_at) / Fold change /veh PRSS12 (11739890_at) / RFU BIN1 (11741810_x_at) / Fold change /veh BIN1 (11741810_x_at) / RFU WNT11 (11732464_a_at) / Fold change /veh WNT11 (11732464_a_at) / RFU C10orf10 (11716521_a_at) / Fold change /veh C10orf10 (11716521_a_at) / RFU C5orf56 (11738089_at) / Fold change /veh C5orf56 (11738089_at) / RFU CYB561 (11721691_x_at) / Fold change /veh CYB561 (11721691_x_at) / RFU ANKRD19P (11752326_a_at) / Fold change /veh ANKRD19P (11752326_a_at) / RFU OR2T12 /// OR2T33 /// OR2T8 (11738714_s_at) / Fold change /veh OR2T12 /// OR2T33 /// OR2T8 (11738714_s_at) / RFU VCAN (11748164_a_at) / Fold change /veh VCAN (11748164_a_at) / RFU JSRP1 (11732532_at) / Fold change /veh JSRP1 (11732532_at) / RFU KRTAP10-11 (11738290_x_at) / Fold change /veh KRTAP10-11 (11738290_x_at) / RFU MYO3A (11730013_a_at) / Fold change /veh MYO3A (11730013_a_at) / RFU EBF3 (11725865_a_at) / Fold change /veh EBF3 (11725865_a_at) / RFU CAMK2N1 (11719241_x_at) / Fold change /veh CAMK2N1 (11719241_x_at) / RFU C5orf56 (11738088_a_at) / Fold change /veh C5orf56 (11738088_a_at) / RFU OLFML3 (11715873_a_at) / Fold change /veh OLFML3 (11715873_a_at) / RFU LOC100653217 /// NTM (11731650_a_at) / Fold change /veh LOC100653217 /// NTM (11731650_a_at) / RFU MAPK11 (11762145_a_at) / Fold change /veh MAPK11 (11762145_a_at) / RFU FIZ1 (11724087_x_at) / Fold change /veh FIZ1 (11724087_x_at) / RFU OASL (11726364_x_at) / Fold change /veh OASL (11726364_x_at) / RFU SOX15 (11748057_x_at) / Fold change /veh SOX15 (11748057_x_at) / RFU CD79A (11719716_a_at) / Fold change /veh CD79A (11719716_a_at) / RFU HIST1H1D (11736915_at) / Fold change /veh HIST1H1D (11736915_at) / RFU CASKIN2 (11723855_a_at) / Fold change /veh CASKIN2 (11723855_a_at) / RFU LOC730098 (11760151_x_at) / Fold change /veh LOC730098 (11760151_x_at) / RFU OR4N2 (11742367_at) / Fold change /veh OR4N2 (11742367_at) / RFU PRRT2 (11749266_a_at) / Fold change /veh PRRT2 (11749266_a_at) / RFU SNX32 (11753110_a_at) / Fold change /veh SNX32 (11753110_a_at) / RFU CDHR5 (11726645_a_at) / Fold change /veh CDHR5 (11726645_a_at) / RFU RCAN1 (11760418_a_at) / Fold change /veh RCAN1 (11760418_a_at) / RFU FAM167A (11723789_a_at) / Fold change /veh FAM167A (11723789_a_at) / RFU FAM26E (11764081_at) / Fold change /veh FAM26E (11764081_at) / RFU ISYNA1 (11749810_s_at) / Fold change /veh ISYNA1 (11749810_s_at) / RFU ACY1 (11761880_at) / Fold change /veh ACY1 (11761880_at) / RFU 11764098_at / Fold change /veh 11764098_at / RFU SAMD14 (11745864_x_at) / Fold change /veh SAMD14 (11745864_x_at) / RFU NPB (11741838_a_at) / Fold change /veh NPB (11741838_a_at) / RFU TMPRSS6 (11731388_a_at) / Fold change /veh TMPRSS6 (11731388_a_at) / RFU KRTAP10-2 (11738614_at) / Fold change /veh KRTAP10-2 (11738614_at) / RFU ARHGAP8 /// PRR5-ARHGAP8 (11727945_x_at) / Fold change /veh ARHGAP8 /// PRR5-ARHGAP8 (11727945_x_at) / RFU KRTAP5-7 /// NADSYN1 (11734609_at) / Fold change /veh KRTAP5-7 /// NADSYN1 (11734609_at) / RFU RASL12 (11751679_a_at) / Fold change /veh RASL12 (11751679_a_at) / RFU CDKN2B (11736163_a_at) / Fold change /veh CDKN2B (11736163_a_at) / RFU PRF1 (11729649_at) / Fold change /veh PRF1 (11729649_at) / RFU, ZNF638 /// ZNF638-IT1 / Fold change vs veh, ZNF638 /// ZNF638-IT1 / RFU, PANK3 / Fold change vs veh, PANK3 / RFU, SH3YL1 / Fold change vs veh, SH3YL1 / RFU, ZEB2 / Fold change vs veh, ZEB2 / RFU, NRIP1 / Fold change vs veh, NRIP1 / RFU, PTTG1IP / Fold change vs veh, PTTG1IP / RFU, CAPN2 / Fold change vs veh, CAPN2 / RFU, MED14 / Fold change vs veh, MED14 / RFU, SNORA58 / Fold change vs veh, SNORA58 / RFU, C1orf63 / Fold change vs veh, C1orf63 / RFU, LRRFIP1 / Fold change vs veh, LRRFIP1 / RFU, NDUFAF7 / Fold change vs veh, NDUFAF7 / RFU, SLC12A2 / Fold change vs veh, SLC12A2 / RFU, IBTK / Fold change vs veh, IBTK / RFU, ESF1 / Fold change vs veh, ESF1 / Fold change vs veh, TMEM50B / RFU, TAOK1 / Fold change vs veh, TAOK1 / RFU, ACBD3 / Fold change vs veh, ACBD3 / RFU, TMA16 / Fold change vs veh, TMA16 / RFU, RWDD3 / Fold change vs veh, RWDD3 / RFU, BCAT1 / Fold change vs veh, BCAT1 / RFU, EDEM3 / Fold change vs veh, EDEM3 / RFU, TMEM33 / Fold change vs veh, TMEM33 / RFU, WDR75 / Fold change vs veh, WDR75 / RFU, AHCTF1 / Fold change vs veh, AHCTF1 / RFU, TFRC / Fold change vs veh, TFRC / RFU, ZDHHC17 / Fold change vs veh, ZDHHC17 / RFU, NOM1 / Fold change vs veh, NOM1 / RFU, ARL8B / Fold change vs veh, ARL8B / RFU, ZBTB11 / Fold change vs veh, ZBTB11 / RFU, TAMM41 / Fold change vs veh, TAMM41 / RFU, KIAA1704 /// LOC100996395 / Fold change vs veh, KIAA1704 /// LOC100996395 / RFU, ING1 / Fold change vs veh, ING1 / RFU, TRMT61B / Fold change vs veh, TRMT61B / RFU, FUBP3 / Fold change vs veh, FUBP3 / RFU, TP53 / Fold change vs veh, TP53 / RFU, TNKS2 / Fold change vs veh, TNKS2 / RFU, ZFP14 / Fold change vs veh, ZFP14 / RFU, ACTR2 / Fold change vs veh, ACTR2 / RFU, PPP3R1 / Fold change vs veh, PPP3R1 / RFU, PIK3R1 / Fold change vs veh, PIK3R1 / RFU, HNRNPA1 / Fold change vs veh, HNRNPA1 / RFU, RNF170 / Fold change vs veh, RNF170 / RFU, ZNF28 / Fold change vs veh, ZNF28 / RFU, RNGTT / Fold change vs veh, RNGTT / RFU, OGT / Fold change vs veh, OGT / RFU, BRD1 / Fold change vs veh, BRD1 / RFU, MARS / Fold change vs veh, MARS / RFU, ZNF655 / Fold change vs veh, ZNF655 / RFU, FAHD1 / Fold change vs veh, FAHD1 / RFU, BDP1 / Fold change vs veh, BDP1 / RFU, LRRCC1 / Fold change vs veh, LRRCC1 / RFU, ARID1A / Fold change vs veh, ARID1A / RFU, ZNF146 / Fold change vs veh, ZNF146 / RFU, ZNF330 / Fold change vs veh, ZNF330 / RFU, GPN3 / Fold change vs veh, GPN3 / RFU, C9orf123 / Fold change vs veh, C9orf123 / RFU, N4BP2L2 / Fold change vs veh, N4BP2L2 / RFU, ARFIP1 / Fold change vs veh, ARFIP1 / RFU, FAM179B / Fold change vs veh, FAM179B / RFU, BCL10 / Fold change vs veh, BCL10 / RFU, UHRF1BP1L / Fold change vs veh, UHRF1BP1L / RFU, BET1 / Fold change vs veh, BET1 / RFU, CNOT2 / Fold change vs veh, CNOT2 / RFU, ZNF268 / Fold change vs veh, ZNF268 / Fold change vs veh, ZNF507 / RFU, DGCR2 / Fold change vs veh, DGCR2 / RFU, WDSUB1 / Fold change vs veh, WDSUB1 / Fold change vs veh, HSP90B1 /// MIR3652 / RFU, ADSS / Fold change vs veh, ADSS / RFU, GK / Fold change vs veh, GK / RFU, ZNF148 / Fold change vs veh, ZNF148 / RFU, TAF9 / Fold change vs veh, TAF9 / RFU, SLC1A5 / Fold change vs veh, SLC1A5 / RFU, SLMO2 / Fold change vs veh, SLMO2 / RFU, ABCC4 / Fold change vs veh, ABCC4 / RFU, LOC101060439 /// RAP1B / Fold change vs veh, LOC101060439 /// RAP1B / RFU, RFX7 / Fold change vs veh, RFX7 / RFU, GTPBP10 / Fold change vs veh, GTPBP10 / RFU, CNEP1R1 / Fold change vs veh, CNEP1R1 / RFU, BIVM-ERCC5 /// ERCC5 / Fold change vs veh, BIVM-ERCC5 /// ERCC5 / RFU, ILF3 / Fold change vs veh, ILF3 / RFU 11762660_at / Fold change /veh 11762660_at / RFU VCAN (11757783_s_at) / Fold change /veh VCAN (11757783_s_at) / RFU DDX43 (11728927_at) / Fold change /veh DDX43 (11728927_at) / RFU KRT8 (11758188_x_at) / Fold change /veh KRT8 (11758188_x_at) / RFU NKD1 (11759106_at) / Fold change /veh NKD1 (11759106_at) / RFU SRD5A1 (11742802_a_at) / Fold change /veh SRD5A1 (11742802_a_at) / RFU TPSAB1 /// TPSB2 (11721975_s_at) / Fold change /veh TPSAB1 /// TPSB2 (11721975_s_at) / RFU GSTM3 (11746129_a_at) / Fold change /veh GSTM3 (11746129_a_at) / RFU IL23R (11737362_x_at) / Fold change /veh IL23R (11737362_x_at) / RFU TMEM51 (11727254_a_at) / Fold change /veh TMEM51 (11727254_a_at) / RFU PIWIL2 (11732686_x_at) / Fold change /veh PIWIL2 (11732686_x_at) / RFU ORM1 (11744905_x_at) / Fold change /veh ORM1 (11744905_x_at) / RFU CCDC152 (11743942_at) / Fold change /veh CCDC152 (11743942_at) / RFU ECM1 (11717891_a_at) / Fold change /veh ECM1 (11717891_a_at) / RFU IL23R (11748794_a_at) / Fold change /veh IL23R (11748794_a_at) / RFU TNFAIP8L3 (11732012_x_at) / Fold change /veh TNFAIP8L3 (11732012_x_at) / RFU MBOAT4 (11741988_at) / Fold change /veh MBOAT4 (11741988_at) / RFU 11764193_at / Fold change /veh 11764193_at / RFU TMEM53 (11763286_at) / Fold change /veh TMEM53 (11763286_at) / RFU MAGEB2 (11727129_at) / Fold change /veh MAGEB2 (11727129_at) / RFU TMEM200A (11744735_a_at) / Fold change /veh TMEM200A (11744735_a_at) / RFU CCDC152 (11751479_a_at) / Fold change /veh CCDC152 (11751479_a_at) / RFU FAM211A (11726209_a_at) / Fold change /veh FAM211A (11726209_a_at) / RFU RGS16 (11746705_a_at) / Fold change /veh RGS16 (11746705_a_at) / RFU VCAN (11755009_s_at) / Fold change /veh VCAN (11755009_s_at) / RFU RHOB (11743442_s_at) / Fold change /veh RHOB (11743442_s_at) / RFU RGS16 (11720943_a_at) / Fold change /veh RGS16 (11720943_a_at) / RFU RGS16 (11720944_at) / Fold change /veh RGS16 (11720944_at) / RFU, VPS4B / Fold change vs veh, VPS4B / RFU, CREB1 / Fold change vs veh, CREB1 / RFU, DNAJC13 / Fold change vs veh, DNAJC13 / RFU, GNAQ / Fold change vs veh, GNAQ / RFU, CDK5R1 / Fold change vs veh, CDK5R1 / RFU, ZRANB3 / Fold change vs veh, ZRANB3 / RFU, CUL4A / Fold change vs veh, CUL4A / RFU, CCNY / Fold change vs veh, CCNY / RFU, UFL1 / Fold change vs veh, UFL1 / RFU, COG3 / Fold change vs veh, COG3 / RFU, DIAPH2 / Fold change vs veh, DIAPH2 / RFU, SKA2 / Fold change vs veh, SKA2 / RFU, AFF3 / Fold change vs veh, AFF3 / RFU, LMF1 / Fold change vs veh, LMF1 / RFU, IPO11 / Fold change vs veh, IPO11 / RFU, DFFB / Fold change vs veh, DFFB / RFU, FOXP1 / Fold change vs veh, FOXP1 / RFU, CARD8 / Fold change vs veh, CARD8 / RFU, STRN3 / Fold change vs veh, STRN3 / RFU, ADK / Fold change vs veh, ADK / RFU, RASSF2 / Fold change vs veh, RASSF2 / RFU, WIPF1 / Fold change vs veh, WIPF1 / RFU, LARP1B / Fold change vs veh, LARP1B / RFU, RASA1 / Fold change vs veh, RASA1 / RFU, RB1 / Fold change vs veh, RB1 / RFU, PPFIA1 / Fold change vs veh, PPFIA1 / RFU, MAT2A / Fold change vs veh, MAT2A / RFU, CCT5 / Fold change vs veh, CCT5 / RFU, WDR92 / Fold change vs veh, WDR92 / RFU, CUX1 / Fold change vs veh, CUX1 / RFU, TTC7A / Fold change vs veh, TTC7A / RFU, TMEM135 / Fold change vs veh, TMEM135 / RFU, DEPTOR / Fold change vs veh, DEPTOR / RFU, CPM / Fold change vs veh, CPM / RFU, DNAJB6 / Fold change vs veh, DNAJB6 / RFU, CACNA2D3 / Fold change vs veh, CACNA2D3 / RFU, DTX4 / Fold change vs veh, DTX4 / RFU, TFCP2 / Fold change vs veh, TFCP2 / RFU, GMCL1 /// GMCL1P1 / Fold change vs veh, GMCL1 /// GMCL1P1 / RFU, AEBP2 / Fold change vs veh, AEBP2 / RFU, SNHG1 /// SNORD22 /// SNORD25 /// SNORD26 /// SNORD27 /// SNORD28 /// SNORD29 /// SNORD31 / Fold change vs veh, SNHG1 /// SNORD22 /// SNORD25 /// SNORD26 /// SNORD27 /// SNORD28 /// SNORD29 /// SNORD31 / Fold change (Aza/veh), C12orf56 (ProbeSet 11735607_a_at) / Fold change (ACY-1035/veh), C12orf56 (ProbeSet 11735607_a_at) / Fold change (Aza/veh), FGFR1OP (ProbeSet 11751329_s_at) / Fold change (ACY-1035/veh), FGFR1OP (ProbeSet 11751329_s_at) / Fold change (Aza/veh), VPS36 (ProbeSet 11739960_a_at) / Fold change (ACY-1035/veh), VPS36 (ProbeSet 11739960_a_at) / RFU SYPL1 (11715823_x_at) / Fold change /veh SYPL1 (11715823_x_at) / RFU IGFBP7 (11715501_s_at) / Fold change /veh IGFBP7 (11715501_s_at) / RFU REEP3 (11722064_at) / Fold change /veh REEP3 (11722064_at) / RFU IGLL1 (11728026_x_at) / Fold change /veh IGLL1 (11728026_x_at): dose or concentration left out as unconfirmed. The conditions noted are these: ProbeSet 11723475_a_at; LIST B.

Take `Nc1ccc(-c2cccs2)cc1NC(=O)c1ccc2c(c1)cc(C1CC1)n2CCN1CCOCC1` [ACY-1035]: the “Fold change vs veh, TRMT61B” value was 0.88.
